pIC50: −log10 of the molar value. Where two headings read alike, the source gives them in different places.
What was measured:
[1] = biological target: GDP-bound protein (aa 1-169), containing both G12C and C118A amino acid substitutions (Homo sapiens, UniProt P01116, C118A/G12C); test: Coupled Nucleotide Exchange Assay (SOS-mediated nucleotide exchange, AlphaScreen); format: biochemical; details: 2 hours compound pre-incubation
How it was run: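 His-tagged GDP-bound […] (aa 1-169, G12C/C118A) pre-incubated 2 h with compound titration in 25 mM HEPES pH 7.4, 10 mM MgCl2, 0.01% Triton X-100.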

[2] = system: Phosphorylation of ERK½ in MIA PaCa-2 cells; test: Phospho-ERK½ MSD Assay in MIA PaCa-2 cells; format: cell-based; details: 4 hours compound treatment, 10 ng/mL EGF for 10 min, read-out: p-ERK IC50 (MIA PaCa-2)
Experimental: (§1) Phospho-ERK½ MSD Assay: MIA PaCa-2 (ATCC® CRL-1420™) and A549 (ATCC® CCL-185™) cells were cultured in RPMI 1640 Medium (ThermoFisher Scientific 11875093) containing 10% fetal bovine serum (ThermoFisher Scientific 16000044) and 1× penicillin-streptomycin-glutamine (ThermoFisher Scientific 10378016). Sixteen hours prior to compound treatment, MIA PaCa-2 or A549 cells were seeded in 96-well cell culture plates at a density of 25,000 cells/well and incubated at 37° C., 5% CO2. A compound dose-response titration was diluted in growth media, added to appropriate wells of a cell culture plate, and then incubated at 37° C., 5% CO2 for 4 hours. Following compound treatment, cells were stimulated with 10 ng/mL EGF (Roche 11376454001) for 10 min, washed with ice-cold Dulbecco's phosphate-buffered saline, no Ca^2+ or Mg^2+ (ThermoFisher Scientific 14190144), and then lysed in RIPA buffer (50 mM Tris-HCl pH 7.5, 1% Igepal, 0.5% sodium deoxycholate, 150 mM NaCl, and 0.5% sodium dodecyl sulfate) containing protease inhibitors (Roche 4693132001) and phosphatase inhibitors (Roche 4906837001). Cell lysates were stored frozen at −80° C. overnight. Phosphorylation of ERK½ in compound-treated lysates was assayed using Phospho-ERK½ Whole Cell Lysate kits (Meso Scale Discovery K151DWD) according to the manufacturer's protocol. Assay plates were read on a Meso Scale Discovery Sector Imager 6000, and data were analyzed using a 4-parameter logistic model to calculate IC50 values.

[3] = system: Phosphorylation of ERK½ in A549 cells; test: Phospho-ERK½ MSD Assay in A549 cells; format: cell-based; details: 4 hours compound treatment, 10 ng/mL EGF for 10 min, read-out: p-ERK IC50 (A549)
Experimental: as §1

[4] = Homo sapiens, MIA PaCa-2, MIA PaCa-2 cells

Sequence of GDP-bound protein (aa 1-169), containing both G12C and C118A amino acid substitutions (P01116 1-169 isoform P01116-2 G12C/C118A): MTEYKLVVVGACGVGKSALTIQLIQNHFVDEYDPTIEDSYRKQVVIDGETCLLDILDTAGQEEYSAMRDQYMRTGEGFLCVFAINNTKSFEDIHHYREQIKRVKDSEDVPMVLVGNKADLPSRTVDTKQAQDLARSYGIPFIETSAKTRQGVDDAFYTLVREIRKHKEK

Row | SMILES | Coupled exchange IC50 [1] [µM] | pIC50 [2, 4] | pIC50 ([3]; Homo sapiens, A549, A549 cells) | pIC50 ([2]; MIA PaCa-2 cells) | pIC50 ([3]; A549 cells)
1 | C=CC(=O)N1CC(Nc2snc3c(F)c(-c4cc(O)cc5ccccc45)c(Cl)cc23)C1 [Example 1-20, 1-(3-((5-chloro-7-fluoro-6-(3-hydroxy-1-naphthalenyl)-2,1-benzothiazol-3-yl)amino)-1-azetidinyl)-2-propen-1-one] | 0.683 | 5.30 | < 4.00 |  | 
2 | C=CC(=O)N1CCN(c2snc3nc(-c4cc(O)cc5ccccc45)c(Cl)cc23)C(C)C1 (single isomer, unassigned) [Example 2-5-2, 1-((3R)-4-(5-chloro-6-(3-hydroxy-1-naphthalenyl) [1,2]thiazolo[3,4-b]pyridin-3-yl)-3-methyl-1-piperazinyl)-2-propen-1-one or 1-((3S)-4-(5-ch1oro-6-(3-hydroxy-1-naphthalenyl) [1,2]thiazolo[3,4-b]pyridin-3-yl)-3-methyl-1-piperazinyl)-2-propen-1-one] | 1.35 |  |  | 5.13 | 5.43
3 | C=CC(=O)N1CCN(c2snc3c(F)c(-c4cc(O)cc5ccccc45)c(Cl)cc23)C(CCO)C1 (stereo in doubt) [Example 1-11, 1-((3S)-4-(5-chloro-7-fluoro-6-(3-hydroxy-1-naphthalenyl)-2,1-benzothiazol-3-yl)-3-(2-hydroxyethyl)-1-piperazinyl)-2-propen-1-one] | 0.695 | 5.09 | < 4.00 |  | 
4 | C=CC(=O)N1CCN(c2nnc(C3CC3)c3cc(-c4c(O)cccc4F)c(Cl)cc23)CC1 [Example 12, 1-(4-(7-Chloro-4-cyclopropyl-6-(2-fluoro-6-hydroxyphenyl)-1-phthalazinyl)-1-piperazinyl)-2-propen-1-one] | 3.34 | 4.59 | < 4.00 |  | 
5 | C=CC(=O)N1CCN(c2snc3c(F)c(-c4cc(O)cc5ccccc45)c(Cl)cc23)[C@@H](C)C1 [Example 1-19, 1-((3S)-4-(5-chloro-7-fluoro-6-(3-hydroxy-1-naphthalenyl)-2,1-benzothiazol-3-yl)-3-methyl-1-piperazinyl)-2-propen-1-one] | 0.297 |  | < 4.00 | 5.88 | 
6 | C=CC(=O)N1CCN(c2nnc(Oc3ccccc3)c3cc(-c4c(O)cccc4F)c(Cl)cc23)CC1 [Example 16, 1-(4-(7-Chloro-6-(2-fluoro-6-hydroxyphenyl)-4-phenoxy-1-phthalazinyl)-1-piperazinyl)-2-propen-1-one] | 2.93 | 5.06 | 4.48 |  | 
7 | C=CC(=O)N1CCN(c2snc3c(F)c(-c4cc(O)cc5ccccc45)c(Cl)cc23)C(CO)C1 (stereo in doubt) [Example 1-7, 1-((3R)-4-(5-chloro-7-fluoro-6-(3-hydroxy-1-naphthalenyl)-2,1-benzothiazol-3-yl)-3-(hydroxymethyl)-1-piperazinyl)-2-propen-1-one] | 0.209 | 5.73 | < 4.00 |  | 

Now from value to compound:

Row | Coupled exchange IC50 [1] [µM] | pIC50 [2, 4] | pIC50 ([3]; Homo sapiens, A549, A549 cells) | pIC50 ([2]; MIA PaCa-2 cells) | pIC50 ([3]; A549 cells) | SMILES
8 | 1.32 | 5.89 | < 4.00 |  |  | C=CC(=O)N1CCN(c2nc(=O)n(-c3c(CC)cccc3CC)c3nc(-n4nnc5ccccc54)c(Cl)cc23)[C@@H](C)C1 [Example 9-12, 7-(1H-benzotriazol-1-yl)-6-chloro-1-(2,6-diethylphenyl)-4-((2S)-2-methyl-4-(2-propenoyl)-1-piperazinyl)pyrido[2,3-d]pyrimidin-2(1H)-one]
9 | 1.10 | 5.03 | < 4.00 |  |  | C=CC(=O)N1CCN(c2nnc(-c3cc(Cl)ccc3C)c3cc(-c4c(O)cccc4F)c(Cl)cc23)CC1 [Example 10-3, 1-(4-(7-chloro-4-(5-chloro-2-methylphenyl)-6-(2-fluoro-6-hydroxyphenyl)-1-phthalazinyl)-1-piperazinyl)-2-propen-1-one]
10 | 1.20 | 5.22 | < 4.00 |  |  | C=CC(=O)N1CCN(c2nnc(-c3cnccc3C)c3cc(-c4c(O)cccc4F)c(Cl)cc23)CC1 [Example 10-6, 1-(4-(7-chloro-6-(2-fluoro-6-hydroxyphenyl)-4-(4-methyl-3-pyridinyl)-1-phthalazinyl)-1-piperazinyl)-2-propen-1-one]
11 | 0.954 | 5.69 | < 4.48 |  |  | C=CC(=O)N1CCN(c2snc3c(F)c(-c4cc(N)ccc4Cl)c(Cl)cc23)CC1 [Example 3-19, 1-(4-(6-(5-amino-2-chlorophenyl)-5-chloro-7-fluoro-2,1-benzothiazol-3-yl)-1-piperazinyl)-2-propen-1-one]
12 | 0.139 | 6.09 | < 4.00 |  |  | C=CC(=O)N1CC(N(C)c2snc3c(F)c(-c4cc(O)cc5ccccc45)c(Cl)cc23)C1 [Example 5-9, 1-(3-((5-Chloro-7-fluoro-6-(3-hydroxynaphthalen-1-yl)benzo[c]isothiazol-3-yl)(methyl)amino)azetidin-1-yl)prop-2-en-1-one]
13 | 0.516 | 4.83 | < 4.00 |  |  | C=CC(=O)N1CCN(c2nnc(-c3ccccc3Cl)c3cc(-c4c(O)cccc4F)c(Cl)cc23)CC1 [Example 10-11, 1-(4-(7-chloro-4-(2-chlorophenyl)-6-(2-fluoro-6-hydroxyphenyl)-1-phthalazinyl)-1-piperazinyl)-2-propen-1-one]
14 | 3.37 | 5.03 | < 4.48 |  |  | C=CC(=O)N1CCN(c2snc3c(F)c(-c4cc(OC)ccc4Cl)c(Cl)cc23)CC1 [Example 3-9, 1-(4-(5-chloro-6-(2-chloro-5-methoxyphenyl)-7-fluoro-2,1-benzothiazol-3-yl)-1-piperazinyl)-2-propen-1-one]
15 | 0.095 | 7.77 | < 4.48 |  |  | C=CC(=O)N1CCN(c2nc(=O)n(-c3c(CC)cccc3CC)c3nc(-c4c(O)cccc4F)c(Cl)cc23)[C@@H](C)C1 [Example 8-4, 6-chloro-1-(2,6-diethylphenyl)-7-(2-fluoro-6-hydroxyphenyl)-4-((2S)-2-methyl-4-(2 propenoyl)-1-piperazinyl)pyrido[2,3-d]pyrimidin-2(1H)-one]
16 | 0.341 | 5.60 | < 4.00 |  |  | C=CC(=O)N1CC[C@@H]2[C@H]1CN2c1snc2c(F)c(-c3cc(O)cc4ccccc34)c(Cl)cc12 [Example 5-5, 1-((1R,5R)-6-(5-chloro-7-fluoro-6-(3-hydroxy-1-naphthalenyl)-2,1-benzothiazol-3-yl)-2,6-diazabicyclo[3.2.0]heptan-2-yl)-2-propen-1-one]
17 | 0.198 | 7.64 | 4.89 |  |  | C=CC(=O)N1CCN(c2nc(=O)n(-c3ccccc3C(C)CC)c3cc(-c4cc(O)cc5ccccc45)c(Cl)cc23)CC1 (racemic) [Example 9-4, 1-(2-(2-butanyl)phenyl)-6-chloro-7-(3-hydroxy-1-naphthalenyl)-4-(4-(2-propenoyl)-1-piperazinyl)-2(1H)-quinazolinone]
18 | 0.237 | 5.45 | < 4.00 |  |  | C=CC(=O)N1CCN(c2nc(=O)n(-c3ccncc3C3CC3)c3cc(-c4c(O)cccc4F)c(Cl)cc23)CC1 [Example 9-6, 6-chloro-1-(3-cyclopropyl-4-pyridinyl)-7-(2-fluoro-6-hydroxyphenyl)-4-(4-(2-propenoyl)-1-piperazinyl)-2(1H)-quinazolinone]
19 | 0.341 | 5.72 | 5.43 |  |  | C=CC(=O)N1CCN(c2snc3nc(-c4cc(O)cc5ccccc45)c(Cl)cc23)CC1 [Example 2-1, 1-(4-(5-chloro-6-(3-hydroxy-1-naphthalenyl)[1,2]thiazolo[3,4-b]pyridin-3-yl)-1-piperazinyl)-2-propen-1-one]
20 | 1.59 | 5.53 | 5.43 |  |  | C=CC(=O)N1CCN(c2snc3nc(-c4c(C)ccc5[nH]ncc45)c(Cl)cc23)C(C)C1 (racemic) [Example 2-6, 1-(4-(5-chloro-6-(5-methyl-1H-indazol-4-yl)[1,2]thiazolo[3,4-b]pyridin-3-yl)-3-methyl-1-piperazinyl)-2-propen-1-one]

Source: patent US11285135B2 (AMGEN INC., priority 2016, dated 2022)
